Data: PubChem BioAssay (NCI)
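Cells were grown in 96-well plates and exposed to each compound for 48 hours at five concentrations; endpoints were interpolated linearly between bracketing concentrations, or set to the highest concentration if not reached. GI50 = concentration required for 50% inhibition of growth. TGI: concentration producing complete growth inhibition.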

Columns and labels:
Test in all cases: growth of human tumour cells (NCI), 48 h
RXF 393 renal = tested on: RXF 393 renal
786-0 renal = tested on: 786-0 renal
UACC-62 melanoma = tested on: UACC-62 melanoma
HCT-15 colon = tested on: HCT-15 colon
SNB-75 CNS = tested on: SNB-75 CNS
IGROV1 ovarian = tested on: IGROV1 ovarian
SK-OV-3 ovarian = tested on: SK-OV-3 ovarian
CCRF-CEM leukemia = tested on: CCRF-CEM leukemia
LOX IMVI melanoma = tested on: LOX IMVI melanoma
UACC-257 melanoma = tested on: UACC-257 melanoma

| Compound | TGI (RXF 393 renal) | TGI (786-0 renal) | TGI (UACC-62 melanoma) | TGI (HCT-15 colon) | TGI (SNB-75 CNS) | TGI (IGROV1 ovarian) | TGI (SK-OV-3 ovarian) | TGI (CCRF-CEM leukemia) | TGI (LOX IMVI melanoma) | TGI (UACC-257 melanoma) | GI50 (RXF 393 renal) | GI50 (786-0 renal) | GI50 (UACC-62 melanoma) | GI50 (HCT-15 colon) | GI50 (SNB-75 CNS) | GI50 (IGROV1 ovarian) | GI50 (SK-OV-3 ovarian) | GI50 (CCRF-CEM leukemia) | GI50 (LOX IMVI melanoma) | GI50 (UACC-257 melanoma) |
| --- | --- | --- | --- | --- | --- | --- | --- | --- | --- | --- | --- | --- | --- | --- | --- | --- | --- | --- | --- | --- |
| CC(=O)Oc1cc2c(cc1OC(C)=O)C1(C)CCC2(C)c2cc(OC(C)=O)c(OC(C)=O)cc21 | > 100 µM | > 100 µM | 29.5 µM | 85.3 µM | 91.7 µM | 72.3 µM | 72.5 µM | 11.4 µM | > 100 µM | 40.4 µM |  |  |  |  |  |  |  |  |  |  |
| Cn1c(Cl)c(/C=C2/C(=O)Nc3ccccc32)c2ccccc21 | > 19.6 µM | 20.5 µM | 7.1 µM | 11.9 µM | 23 µM | > 100 µM | 10.5 µM | > 22.1 µM | 18.9 µM | 37.8 µM | 0.392 µM | 1.32 µM | 0.13 µM | 0.16 µM | 3.28 µM | 2.12 µM | 0.732 µM | 0.592 µM | 1.16 µM | 10.7 µM |
| Cc1cc(Cl)ccc1OCC(=O)Nc1nc2c(Cl)cccc2s1 |  | > 100 µM | > 100 µM | > 100 µM | > 100 µM | > 100 µM | > 100 µM | 35.7 µM | 45.6 µM | > 100 µM |  | 26.4 µM | 7.41 µM | 6.49 µM | 23.7 µM | > 100 µM | 96.2 µM | 6.94 µM | 9.82 µM | > 100 µM |
| CC(C)CNc1nc(-c2ccccc2Cl)nc2ccccc12 | 31.2 µM | 30.4 µM | 27.4 µM | 32.1 µM |  | > 100 µM | 50.1 µM | 43.3 µM | 27.6 µM |  | 15.1 µM | 16.8 µM | 14.3 µM | 17.1 µM |  | 19.7 µM | 21.3 µM | 18.8 µM | 14.5 µM |  |
| CN(c1ccc(NC(=O)Nc2c(Cl)cccc2Cl)cc1)c1ccnc(Nc2cccc(CS(C)(=O)=O)c2)n1 | 8.08 µM | 10.6 µM | 8.36 µM | > 25 µM | 7 µM | > 17 µM | 12 µM | > 25 µM | > 14.7 µM | 6.55 µM | 2.23 µM | 3.63 µM | 3.11 µM | 5.6 µM | 1.69 µM | 4.57 µM | 4.72 µM | 0.109 µM | 2.37 µM | 1.94 µM |
| CCCCCCCCCCCCCP(=O)(O)O | > 100 µM | > 100 µM | > 100 µM | > 100 µM | > 100 µM | > 100 µM | > 100 µM | > 100 µM | > 100 µM | > 100 µM |  |  |  |  |  |  |  |  |  |  |
| COc1ccc2c(c1)C(=O)CCc1cc(OC)c(OC)c(OC)c1-2 |  | > 100 µM | > 100 µM | > 100 µM |  |  | > 100 µM | > 100 µM | > 100 µM | > 100 µM |  | < 0.01 µM | < 0.01 µM | < 0.01 µM |  |  |  | < 0.01 µM | < 0.01 µM |  |
| CCN1C(=O)/C(=C/c2c(Cl)[nH]c3cc(C)c(OC)cc23)c2ccccc21 | 34 µM | 21.3 µM | 23.7 µM | > 100 µM | > 100 µM | > 100 µM |  | 5.22 µM | > 100 µM | > 100 µM | 1.11 µM | 4.87 µM | 0.526 µM | 4.19 µM | 13.8 µM | 2.07 µM |  | 1.76 µM | 9.72 µM | 6.47 µM |
| CCCCCCCCn1ccc2cc(NC(=O)Cn3cc(CN4CCCCCC4)nn3)ccc21 | 3.24 µM | 3.07 µM | 3.45 µM | 3.17 µM | 2.91 µM | 3.33 µM | 3.33 µM | 7.41 µM | 3.17 µM | 3.58 µM | 1.66 µM | 1.68 µM | 1.93 µM | 1.6 µM | 1.55 µM | 1.72 µM | 1.75 µM | 2.25 µM | 1.7 µM | 1.91 µM |
| CC(=O)Oc1c(C)c(-c2ccccc2)c(C)c(-c2ccccc2)c1C(=S)c1ccccc1 | > 100 µM | > 100 µM | > 100 µM | > 100 µM | > 100 µM | > 100 µM | > 100 µM | > 100 µM | > 100 µM | > 100 µM |  |  |  |  |  |  |  |  |  |  |
| CN(C)CCC(=O)N1C/C(=C\c2ccc(Cl)c(Cl)c2)C(=O)/C(=C/c2ccc(Cl)c(Cl)c2)C1 | 0.747 µM | 0.323 µM | 1.72 µM | 0.493 µM | 1.3 µM | 0.648 µM | 3.76 µM | 0.738 µM | 0.278 µM | 2.53 µM |  |  |  |  |  |  |  |  |  |  |
| CCOC(=O)[CH-]C(=O)C12CC3CC(CC(C3)C1)C2.CCOC(=O)[CH-]C(=O)C12CC3CC(CC(C3)C1)C2.CC[O-].CC[O-].[Ti+4] |  | > 100 µM | > 100 µM |  | > 100 µM | > 100 µM | > 100 µM | > 100 µM | > 100 µM | > 100 µM |  | > 100 µM | > 100 µM |  | 36.9 µM | > 100 µM | > 100 µM | > 100 µM | > 100 µM | > 100 µM |
| CN(C)C/C=C/C(=O)Nc1ccc(C(=O)N[C@@]2(C)CCC[C@@H](Nc3ncc(Cl)c(-c4c[nH]c5ccccc45)n3)C2)nc1 | 0.0344 µM | 0.236 µM | 0.0728 µM | 1.05 µM | 0.0427 µM |  | 1.23 µM | 1.3 µM |  | 0.121 µM | 0.0144 µM | < 0.0146 µM | < 0.01 µM | 0.0286 µM | 0.0137 µM |  | 0.101 µM | < 0.01 µM |  | < 0.01 µM |
| O=C(Nc1ccc(Cl)cc1)C1C(=O)C(=O)N(c2ccc(Cl)cc2)C1=O (stereo not drawn) | > 100 µM | > 100 µM | > 100 µM | > 100 µM | > 100 µM | > 100 µM | > 100 µM | > 100 µM | > 100 µM |  |  |  |  |  |  |  |  |  |  |  |
| C[C@]12CC=CC(=O)[C@@]1(C)CCC(=O)C2 | > 100 µM | > 100 µM | > 100 µM |  | > 100 µM | > 100 µM | > 100 µM | > 100 µM |  | > 100 µM |  |  |  |  |  |  |  |  |  |  |
